Data: ChEMBL document CHEMBL4825664, “17-Hydroxybrevianamide N and Its N1-Methyl Derivative, Quinazolinones from a Soft-Coral-Derived Aspergillus sp. Fungus: 13S Enantiomers as the True Natural Products” (J Nat Prod, 2021)
Activity calls are given as the source filed them.

Tests used:
Assay type in all cases: functional, organism-based
Escherichia coli = test: Antibacterial activity against Escherichia coli at 20 ug/ml; details: dose 20.0 µg/ml
Staphylococcus aureus = test: Antibacterial activity against Staphylococcus aureus at 20 ug/ml; details: dose 20.0 µg/ml
Influenza A virus = test: Antiviral activity against Influenza virus H1N1 at 100 uM
Pseudomonas aeruginosa = test: Antibacterial activity against Pseudomonas aeruginosa at 20 ug/ml; details: dose 20.0 µg/ml
Candida albicans = test: Antifungal activity against Candida albicans at 20 ug/ml; details: dose 20.0 µg/ml

Measured: Activity

O=C1NC(=O)[C@H](Cc2ccccc2O)n2c1nc1ccccc1c2=O
inactive: all assays above

CN1C(=O)c2nc3ccccc3c(=O)n2[C@@H](Cc2ccccc2O)C1=O
inactive: all assays above

CN1C(=O)c2nc3ccccc3c(=O)n2[C@H](Cc2ccccc2O)C1=O
inactive: all assays above

O=C1NC(=O)[C@@H](Cc2ccccc2O)n2c1nc1ccccc1c2=O
inactive: all assays above
